Several values for one entry are separate records, joined by “and”; a condition that tells them apart may be missing. Identical values can stand only once. Activity calls are given as the source filed them.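 Rule for the calls: active = compounds giving half or more protection of infected cells from virus-caused growth loss, again on retest; inactive = the rest.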
Tested on: CEM cells HIV-1 protection, formazan growth assay
Assay: NCI AIDS Antiviral Assay
Details: for IC50: measured here: growth of uninfected CEM cells
In short: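 Human CEM cells, uninfected and HIV-1-infected, exposed to five drug concentrations; growth measured by soluble formazan assay and scored as percent protection from infection, with protecting compounds retested.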

| SMILES | EC50 | IC50 | outcome |
| --- | --- | --- | --- |
| Cc1ccc(C(=O)Nc2ccc(CP(=O)(O)O)cc2CP(=O)(O)O)cc1NC(=O)c1cccc(NC(=O)Nc2cccc(C(=O)Nc3cc(C(=O)Nc4ccc(CP(=O)(O)O)cc4CP(=O)(O)O)ccc3C)c2)c1 | > 100 µM | > 100 µM |  |
| CCOC(=O)C(CO)c1nc2c([nH]c1=O)c(=O)n(C)c(=O)n2C (centres undefined) | > 200 µM | > 200 µM |  |
| Nc1ccc(S(=O)(=O)N/N=C/c2ccc3c(c2)OCO3)cc1 | > 81.3 µM | > 81.3 µM |  |
| CCC(O)C1Cc2c(C)cc3c(c2O1)C(=O)c1ccccc1C3=O (centres undefined) |  |  | inactive |
| NC(=O)C(=O)c1ncn(Cc2ccccc2)c1N | > 200 µM | > 200 µM |  |
| COc1ccc(C2C(C#N)=C(S)N(C3OC(CO)C(O)C(O)C3O)C(c3ccccc3)=C2C(C)=O)cc1 (centres undefined) | > 200 µM | 89.1 µM |  |
| Nc1ccc(N=O)c(N)n1 | > 200 µM | > 200 µM |  |
| COc1ccc2cc(C(C)C(=O)N3C(=O)OCC3(C)C)ccc2c1 (centres undefined) | > 200 µM | 91.2 µM |  |
| CC1(C)OC2OC3C4COC(SSC56OCC(O5)C5OC7OC(C)(C)OC7C5O6)(O4)OC3C2O1 (centres undefined) | > 200 µM | 26.3 µM |  |
| COc1cccc(NC(=O)CC(=O)NN2C(=O)/C(=C/c3ccc(N(CCC#N)CCC#N)cc3)N=C2c2cc([N+](=O)[O-])ccc2Cl)c1 | > 11 µM | 7.24 µM |  |
| C/C(=N/OC(=O)N(C)C)c1ccc(Cl)c(Cl)c1 | > 200 µM | 102 µM |  |
| Cc1cc(C)c2c(=N)c3ccccc3n(CCCCCCCCn3c4ccccc4c(=N)c4c(C)cc(C)nc43)c2n1 | > 2 µM | 0.251 µM |  |
| Cc1ccc(N=C(N)NC#N)cc1 | > 1450 µM | > 1450 µM |  |
| O=C1C2=C(C(=O)C3=C1C1CCC3C1)C1CCC2C1 | > 200 µM | 5.89 µM |  |
| CN1c2ccccc2S(=O)(=O)n2c(CCc3ccccc3)nnc21 | > 105 µM | > 105 µM |  |
| [O-]/[N+](=C\c1ccccc1)[C@H](COCc1ccccc1)c1ccccc1 | > 77.6 µM | > 77.6 µM |  |
| CN(C)Cc1cc(C(=O)/C=C/c2ccc(Cl)c(Cl)c2)cc(CN(C)C)c1O | > 200 µM | 2.75 µM |  |
| Cc1cn(C2CC(N=[N+]=[N-])C(COC(=O)[C@@]3(O)CCC4C5CCC6=CC(=O)C=C[C@]6(C)C5[C@@H](O)C[C@@]43C)O2)c(=O)[nH]c1=O (some centres undefined) | 1.15 µM | 22.9 µM |  |
| Nc1c(C(=O)Nc2ccccc2)[n+]([O-])c2ccccc2[n+]1[O-] |  |  | inactive |
| CC1CCc2[nH]nc(CC3CC(=O)NC(=O)C3)c2C1 (centres undefined) | > 200 µM | > 200 µM |  |

| SMILES | EC50 | IC50 | outcome |
| --- | --- | --- | --- |
| CCOC(=O)C(=O)/C(=C/N1CC(=O)NC1=S)C(=O)OCC | > 200 µM | > 200 µM |  |
| COC(=O)C(Cc1nc2ccccc2[nH]c1=O)C(=O)C(=O)Nc1ccc(F)cc1 (centres undefined) | > 91.2 µM | 16.2 µM |  |
| COc1ccc(NC(=O)C(=O)NNC(=O)c2sc(NNC(C)=O)nc2C)c([N+](=O)[O-])c1 | > 30.2 µM | > 30.2 µM |  |
| CCC(NC(C)c1ccccc1)C(=O)c1ccc(OCc2ccccc2)c(OCc2ccccc2)c1 (centres undefined) | > 200 µM | > 200 µM |  |
| NC(CCCCCP(=O)(c1ccccc1)C1C=CC=CC1)C(=O)O (centres undefined) | > 200 µM | > 200 µM |  |
| O=C1CN(C=C2C(=O)NC(=O)NC2=O)C(=S)N1 | > 200 µM | > 200 µM |  |
| O=P(OCC1CCCO1)(OCC1CCCO1)OCC1CCCO1 (centres undefined) |  |  | inactive |
| CNc1nnc(CCCCCCCCc2nnc(NC)o2)o1 | > 200 µM | 11.5 µM |  |
| Cc1ccc2nc(Sc3c([N+](=O)[O-])ncn3C)[nH]c2c1 | > 5.01 µM | 4.79 µM |  |
| CCOC(=O)c1cc2c([nH]1)C(=O)CSC1=C2CCN1Cc1ccccc1 | > 50.1 µM | 21.9 µM |  |
| CC(=O)Nc1ccc(/C=C/C(=O)c2ccccc2)cc1 | > 38 µM | > 38 µM |  |
| COc1ccc(OC)c2cc(C3(C)SCCCS3)ccc12 |  |  | inactive |
| CN(C)C1C(=O)C(C(=O)NCN2CCOB(c3ccccc3)OCC2)=C(O)C2(O)C(O)=C3C(=O)C4C(O)=CC=CC4C(C)(O)C3CC12 (centres undefined) | 31.6 µM | 39.8 µM |  |
| Cc1cc(C)nc(NS(=O)(=O)c2ccc(NC(=O)c3ccc4nc5ccccc5c(Nc5ccc(S(N)(=O)=O)cc5)c4c3)cc2)n1 | > 200 µM | 39.8 µM |  |
| COC(=O)[C@@H]1C[C@@H](OS(=O)(=O)c2ccc(C)cc2)CN1S(=O)(=O)c1ccc(C)cc1 | > 200 µM | 33.9 µM |  |
| COc1cc2ccnc(-c3n[nH]c4cc(OC)c(OC)cc34)c2cc1OC |  |  | inactive |
| CC(C(O)c1ccccc1)C(O)(C(F)(F)F)C(F)(F)F (centres undefined) | > 200 µM | 95.5 µM |  |
| c1ccc(-c2ccccn2)nc1 | > 1580 µM | 27.5 µM |  |
| O=c1c2cccnc2cc(-c2ccccc2)n1CCO | > 200 µM | > 200 µM |  |
| Cc1ccc(/C=C/C(=O)c2sc(-c3cccnc3)nc2C)cc1 | > 22.4 µM | > 22.4 µM |  |

| SMILES | EC50 | IC50 | outcome |
| --- | --- | --- | --- |
| CN1c2ccccc2N(C(=O)c2ccccc2)C(CC(=O)O)c2cccn21 (centres undefined) | > 692 µM | 288 µM |  |
| CN(C)CCN1C(=O)c2c(c3cccn3c3c2cnn3-c2ccccc2)C1=O | > 200 µM | > 200 µM |  |
| CCOC(=O)C(C)(CCC(C)(C(=O)OCC)C(=O)OCC)C(=O)OCC | > 200 µM | 75.9 µM |  |
| CNC(=O)OCc1c(COC(=O)NC)c2n(c1C)CS(=O)(=O)C2 | > 200 µM | > 200 µM |  |
| Cn1c(O)c(C=Nc2ccccc2[N+](=O)[O-])c(=O)n(C)c1=O |  |  | inactive |
| N#Cc1cc([N+](=O)[O-])ccc1NC(=O)C(=O)Nc1n[nH]c(N)n1 | > 794 µM | 692 µM |  |
| O=C1C(c2ccccc2)=C(c2ccccc2)C(c2ccc(CCCCCCc3ccc(C4=C(c5ccccc5)C(=O)C(c5ccccc5)=C4c4ccccc4)cc3)cc2)=C1c1ccccc1 | > 1.23 µM | > 1.23 µM |  |
| COc1ccc2[nH]c3c(C)c4ccnc(NCCCN(C)CCCN)c4c(C)c3c2c1 | > 1 µM | 0.38 µM |  |
| CCN(CC)C1=Nc2ccccc2-n2c(C)cnc2C1 | > 200 µM | > 200 µM |  |
| O=Cc1c(O)ccc2ccc(O)c(-c3c(O)ccc4ccc(O)cc34)c12 | > 363 µM | 20.9 µM |  |
| O=C1NC(N/N=C\C(O)C(O)C(O)CO)=N/C1=C/c1ccccc1 (centres undefined) | > 200 µM and 38 µM | 89.1 µM and 105 µM |  |
| CCN(CC)CCn1c2cc3c(cc2c(=O)c2cccnc21)OCO3 | > 200 µM | 7.94 µM |  |
| CCN(c1cccc(NC(=S)Nc2ccccc2N(CC)c2cc(-c3ccccc3)no2)c1)c1cc(-c2ccccc2)no1 | > 200 µM | > 200 µM |  |
| COC(=O)CCCCC(c1cc(Cl)c(OC)c(C(=O)OC)c1)c1cc(Cl)c(OC)c(C(=O)OC)c1 | > 200 µM | 13.5 µM |  |
| O=c1c2cccnc2n2n1Cc1ccccc1C2 | > 200 µM | 151 µM |  |
| CCN=C(NC(=O)c1ccc(Cl)cc1)SCSC(=NCC)NC(=O)c1ccc(Cl)cc1 | > 200 µM | 72.4 µM |  |
| O=C1CSC(c2ccc(Cl)cc2)N1c1ccc(-c2ccc(-n3c(-c4ccccc4)nc4ccccc4c3=O)cc2)cc1 (centres undefined) | > 200 µM | 47.9 µM |  |
| CCc1c(-c2ccccc2)[nH]c(=S)c(C#N)c1C | > 200 µM | > 200 µM |  |
| O=C(NCCCCCCNC(=O)NS(=O)(=O)c1ccccc1)NS(=O)(=O)c1ccccc1 | > 200 µM | > 200 µM |  |
| COc1ccccc1/C=C1\N=C(c2ccccc2)OC1=O | > 200 µM | 17.4 µM |  |

From PubChem BioAssay AID179 (DTP/NCI, 2004)
